# Test results from PMC6476888, “Design and synthesis of anticancer 1-hydroxynaphthalene-2-carboxanilides with a p53 independent mechanism of action” (Scientific Reports, 2019).
# System: caspase-8, caspase-9, AIF, cytochrome c, PARP in HCT116 cells
# Experiment: Western blot of proapoptotic proteins
# Type: cell-based, human
# Details: p53 null cells
# Experimental: These are shown in Figure S5 supplementary information. […] This observation corresponds with the high selectivity of 5s towards the p53^−/− cell line. Moreover, no activation of caspase-8 or AIF was detected after incubation with the tested anilides. Similarly, the cytochrome c level was unaffected. Leakage of cytochrome c from the mitochondria is the first step of caspase-dependent apoptosis, which is often initiated by p53 activation. […] On the other hand, cleavage of PARP as well as a small but evident increase in the PARP level in response to the active compounds was observed. PolyADP-ribose polymerase is the nuclear factor that is responsible for detecting and repairing single strand breaks in DNA[79]. Its inhibition by the cleavage that is induced with caspase-3 is also a classic sign of apoptosis. However, the complex role of this protein is still vague especially in terms of any alternative activation and deactivation factors[80],[81]. Special attention is being paid to alternative ways of cell death for their potential usefulness in designing selectively targeted drugs[82]–[84].
# The HCT116 cells were seeded in 3-cm Petri dishes (Nunc) at a density of 0.5·10^6 cells/well and incubated overnight. […] The protein concentration was determined using a Micro BCA™ Protein Assay Kit (Thermo-Fisher Scientific, Waltham, MA, USA c) according to the manufacturer’s instructions. […]
structure (smiles),measurement,value
O=C(Nc1ccc(F)c(Cl)c1)c1ccc2ccccc2c1O [5s],cleavage of caspases-8 and −9,some cleavage
